PubChem BioAssay (NCI)
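Step 1: Grow cells in 96-well plates. Step 2: Expose to compound for 48 hours at 5 concentrations. Step 3: Interpolate endpoints linearly; if unreached, use highest concentration. At the TGI there is no net growth.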

Tests used:
Assay in all cases: NCI tumour cell line growth inhibition, 48 h
[1] = test system: 786-0 renal
[2] = test system: A498 renal
[3] = test system: A549 NSCLC
[4] = test system: ACHN renal
[5] = test system: BT-549 breast
[6] = test system: CAKI-1 renal
[7] = test system: CCRF-CEM leukemia
[8] = test system: COLO 205 colon
[9] = test system: DU-145 prostate
[10] = test system: EKVX NSCLC
[11] = test system: HCT-116 colon
[12] = test system: HCT-15 colon
[13] = test system: HL-60(TB) leukemia
[14] = test system: HOP-62 NSCLC
[15] = test system: HOP-92 NSCLC
[16] = test system: HS 578T breast
[17] = test system: HT29 colon
[18] = test system: IGROV1 ovarian
[19] = test system: K-562 leukemia
[20] = test system: KM12 colon
[21] = test system: M14 melanoma
[22] = test system: MCF7 breast
[23] = test system: MDA-MB-231 breast
[24] = test system: MDA-MB-435
[25] = test system: MDA-N
[26] = test system: MOLT-4 leukemia
[27] = test system: NCI-H226 lung
[28] = test system: NCI-H23 lung
[29] = test system: NCI-H460 lung
[30] = test system: NCI-H522 lung
[31] = test system: NCI/ADR-RES ovarian
[32] = test system: OVCAR-3 ovarian
[33] = test system: OVCAR-4 ovarian
[34] = test system: OVCAR-5 ovarian
[35] = test system: OVCAR-8 ovarian
[36] = test system: PC-3 prostate
[37] = test system: RPMI-8226 leukemia
[38] = test system: RXF 393 renal
[39] = test system: SF-268 CNS
[40] = test system: SF-295 CNS
[41] = test system: SF-539 CNS
[42] = test system: SK-MEL-2 melanoma
[43] = test system: SK-MEL-28 melanoma
[44] = test system: SK-OV-3 ovarian
[45] = test system: SN12C renal
[46] = test system: SNB-19 CNS
[47] = test system: SNB-75 CNS
[48] = test system: SR leukemia
[49] = test system: SW-620 colon
[50] = test system: T-47D breast
[51] = test system: U251 CNS
[52] = test system: UACC-257 melanoma
[53] = test system: UACC-62 melanoma
[54] = test system: UO-31 renal
[55] = test system: HCC-2998 colon
[56] = test system: LOX IMVI melanoma
[57] = test system: SK-MEL-5 melanoma
[58] = test system: TK-10 renal
[59] = test system: MALME-3M melanoma

Measured: TGI

COc1cc(C2c3c(ccc4ccccc34)C(=O)C3CCC(=O)N32)cc(OC)c1OC (centres undefined)
> 50 µM: [1] | [2] | [3] | [4] | [5] | [6] | [7] | [8] | [9] | [10] | [11] | [12] | [13] | [14] | [15] | [16] | [17] | [18] | [19] | [20] | [21] | [22] | [23] | [24] | [25] | [26] | [27] | [28] | [29] | [30] | [31] | [32] | [33] | [34] | [35] | [36] | [37] | [38] | [39] | [40] | [41] | [42] | [43] | [44] | [45] | [46] | [47] | [48] | [49] | [50] | [51] | [52] | [53] | [54]

O=[N+]([O-])c1ccccc1N=Nc1c(O)[nH]c2cccc(C(F)(F)F)c12
82.8 µM: [14]
62.2 µM: [32]
69.3 µM: [30]
40.7 µM: [24]
34.5 µM: [52]
88 µM: [28]
33.3 µM: [25]
15.7 µM: [48]
60 µM: [1]
91.3 µM: [23]
52 µM: [33]
57.7 µM: [18]
40.1 µM: [4]
73.8 µM: [45]
> 100 µM: [2] | [3] | [5] | [6] | [7] | [8] | [9] | [10] | [55] | [11] | [12] | [13] | [16] | [17] | [19] | [20] | [56] | [21] | [22] | [26] | [27] | [29] | [31] | [34] | [35] | [36] | [37] | [38] | [39] | [40] | [42] | [43] | [57] | [44] | [46] | [47] | [49] | [50] | [58] | [51] | [53] | [54]

COc1ccc([C@H]2[C@H]3COC(=O)[C@H]3C(C#N)=C3Sc4ccccc4N32)cc1
> 68.2 µM: [30]
38.4 µM: [38]
> 26.7 µM: [47]
72 µM: [37]
69.7 µM: [9]
> 82.5 µM: [50]
> 91.2 µM: [20]
47.7 µM: [7]
> 62.5 µM: [31]
78.8 µM: [28]
> 62.9 µM: [56]
68 µM: [32]
> 57.3 µM: [57]
34.5 µM: [8]
> 90.8 µM: [40]
> 67.7 µM: [26]
37.7 µM: [17]
> 100 µM: [1] | [3] | [4] | [10] | [55] | [11] | [14] | [15] | [16] | [19] | [21] | [59] | [22] | [24] | [27] | [29] | [33] | [34] | [35] | [36] | [39] | [41] | [43] | [44] | [46] | [49] | [58] | [51] | [52] | [53] | [54]
56.7 µM: [42]
98.3 µM: [2]
> 62.3 µM: [6]
> 74.4 µM: [25]
> 87.4 µM: [12]
48.9 µM: [5]
36.4 µM: [45]
> 67.2 µM: [23]

CCc1n[nH]c(=O)n1CCCCCCCCCCCCn1c(CC)n[nH]c1=O
75.5 µM: [8]
64.3 µM: [7]
71.9 µM: [29]
82.9 µM: [50]
40.2 µM: [52]
86.4 µM: [51]
94.4 µM: [28]
80.6 µM: [47]
77.5 µM: [5]
76.3 µM: [24]
99 µM: [56]
> 100 µM: [1] | [2] | [3] | [4] | [6] | [10] | [55] | [11] | [12] | [14] | [15] | [16] | [17] | [18] | [19] | [20] | [22] | [23] | [25] | [27] | [30] | [31] | [32] | [33] | [34] | [35] | [36] | [37] | [38] | [39] | [40] | [41] | [42] | [44] | [45] | [46] | [48] | [49] | [58] | [54]
61.3 µM: [53]
76 µM: [59]
32.8 µM: [57]
67.7 µM: [26]
95.8 µM: [21]

CCOC(=O)c1ccc(-n2[nH]nc(C(N)=O)c2=O)cc1
> 100 µM: [1] | [3] | [4] | [5] | [6] | [7] | [8] | [9] | [10] | [55] | [11] | [12] | [14] | [16] | [17] | [18] | [19] | [20] | [21] | [59] | [22] | [23] | [24] | [25] | [26] | [27] | [28] | [29] | [30] | [31] | [32] | [33] | [34] | [35] | [36] | [37] | [38] | [39] | [40] | [42] | [43] | [57] | [44] | [45] | [46] | [47] | [49] | [50] | [58] | [51] | [52] | [53] | [54]

O=c1[nH]c2nc3ccccc3c(=O)n2/c1=C/c1ccc(Cl)cc1
65.3 µM: [55]
> 100 µM: [1] | [3] | [4] | [6] | [7] | [8] | [9] | [11] | [12] | [13] | [14] | [15] | [20] | [56] | [21] | [59] | [22] | [23] | [26] | [28] | [31] | [32] | [33] | [34] | [36] | [37] | [38] | [39] | [40] | [42] | [43] | [44] | [45] | [48] | [50] | [58] | [51] | [52] | [53] | [54]
71.8 µM: [30]
58.5 µM: [24]
47.7 µM: [41]
46.2 µM: [5]
79.8 µM: [46]
59.7 µM: [49]
58.6 µM: [35]
65.2 µM: [16]
59.5 µM: [25]

CCO/C(=N/S(=O)(=O)C(F)(F)F)N(C(C)C)C(C)C
> 100 µM: [1] | [2] | [3] | [4] | [5] | [6] | [7] | [8] | [9] | [10] | [11] | [12] | [13] | [15] | [16] | [17] | [18] | [20] | [56] | [21] | [59] | [22] | [23] | [24] | [25] | [26] | [28] | [29] | [30] | [31] | [33] | [34] | [35] | [36] | [37] | [38] | [39] | [41] | [42] | [43] | [57] | [45] | [46] | [49] | [50] | [58] | [51] | [52] | [53]
